Values of other authors as cited in patent US20230067402A1, “IS[…] T[…] ANALOGS THEREOF” (Biomind Labs Inc, priority 2021, published 2023).

Details: intramuscular administration

CN(C)CCc1c[nH]c2ccccc12 [DMT, N,N-dimethyltryptamine]
time to peak concentration in the blood: 10 to 15 min
blood level after one hour (after one hour): undetectable levels
